Assay results taken from US8728808B2, “Multiple inducible gene regulation system” (Intrexon Corporation, priority 2000, dated 2014).

What was measured:
[1] = system: GAL4NcEcR-CDE/VP16MmRXRα-EF; test: Transactivation of pFRLuc reporter in CHO cells through NcEcR; format: cell-based, Nephotetix cincticeps; conditions: hamster CHO cells, 0.1, 1, 5, or 10 μM ligand, 48 hours, FIG. 2
Procedure: (§1) This construct was prepared as follows. A polynucleotide encoding the D, E, and F domains from spruce budworm Choristoneura fumiferana EcR (“CfEcR-DEF”; SEQ ID NO: 14) was fused to a polynucleotide encoding a GAL4DNA binding domain (“GAL4 DBD”; SEQ ID NO: 2) and placed under the control of a cytomegalovirus (CMV) promoter/enhancer (SEQ ID NO: 3). A polynucleotide encoding the C, D and E domains from green leafhopper Nephotelix cincticeps ecdysone receptor (“NcEcR-CDE”; SEQ ID NO: 15) was fused to a polynucleotide encoding a GAL4DNA binding domain (“GAL4 DBD”; SEQ ID NO: 2) and placed under the control of a cytomegalovirus (CMV) promoter/enhancer (SEQ ID NO: 3). […]
(§2) DNAs corresponding to the dual switch constructs outlined in Examples 1.1 and 1.2 were transfected into mouse NIH3T3 cells (ATCC; Example 1.1) or CHO cells (ATCC; Example 1.2) as follows. […] One μg of reporter construct and 0.25 μg of each receptor construct of the receptor pair to be analyzed were added to the transfection mix. […]
(§3) Cells were harvested 48 hours after adding ligands and reporter activities were quantified using the Dual-luciferase™ reporter assay system from Promega Corporation. […] Luciferase activity was measured using Dual-luciferase™ reporter assay system from Promega Corporation following the manufacturer's instructions. […]

[2] = molecular target: T1, GAL4DmEcR-CDEF/VP16MmRXR-LmUSP-EFchimera (Drosophila melanogaster, UniProt P34021); test: Dual switch reporter assay in NIH3T3 cells, SEAP under 6XGAL4RE; format: cell-based; conditions: mouse NIH3T3 cells, 0.02, 0.1, 0.5, or 2.5 μM ligand, 48 hours, FIG. 1
T1 construct: C, D, E, and F domains from fruit fly Drosophila melanogaster EcR (“DmEcR-CDEF”); expressed in transfected cells; host or cells: mouse NIH3T3 cells
Source text: (§4) A polynucleotide encoding the C, D, E, and F domains from fruit fly Drosophila melanogaster EcR (“DmEcR-CDEF”; SEQ ID NO: 1) was fused to a polynucleotide encoding a GAL4 DNA binding domain (“Gal4DNABD” or “Gal4 DBD”; SEQ ID NO: 2) and placed under the control of a cytomegalovirus (CMV) promoter/enhancer (SEQ ID NO: 3). A polynucleotide encoding the C, D, E, and F domains from spruce budworm Choristoneura fumiferana EcR (“CfEcR-CDEF”; SEQ ID NO: 4) was fused to a polynucleotide encoding a LexA DNA binding domain (“LexADNABD” or “LexADBD”; SEQ ID NO: 5) and placed under the control of a cytomegalovirus (CMV) promoter/enhancer (SEQ ID NO: 3). […]
as §2, §3

[3] = system: GAL4CfEcR-DEF/VP16MmRXRα-EF; test: Transactivation of pFRLuc reporter in CHO cells through CfEcR; format: cell-based, Choristoneura fumiferana; conditions: hamster CHO cells, 0.1, 1, 5, or 10 μM ligand, 48 hours, FIG. 2
Procedure: as §1, §2, §3

[4] = system: LexACfEcR-CDEF/VP16MmRXR-LmUSP-EFchimera; test: Dual switch reporter assay in NIH3T3 cells, luciferase under 8opLexARE; format: cell-based, Choristoneura fumiferana; conditions: mouse NIH3T3 cells, 0.02, 0.1, 0.5, or 2.5 μM ligand, 48 hours, FIG. 1
Source text: as §4, §2, §3

T1 sequence (P34021 other isoform, or with tags, fused parts or gaps): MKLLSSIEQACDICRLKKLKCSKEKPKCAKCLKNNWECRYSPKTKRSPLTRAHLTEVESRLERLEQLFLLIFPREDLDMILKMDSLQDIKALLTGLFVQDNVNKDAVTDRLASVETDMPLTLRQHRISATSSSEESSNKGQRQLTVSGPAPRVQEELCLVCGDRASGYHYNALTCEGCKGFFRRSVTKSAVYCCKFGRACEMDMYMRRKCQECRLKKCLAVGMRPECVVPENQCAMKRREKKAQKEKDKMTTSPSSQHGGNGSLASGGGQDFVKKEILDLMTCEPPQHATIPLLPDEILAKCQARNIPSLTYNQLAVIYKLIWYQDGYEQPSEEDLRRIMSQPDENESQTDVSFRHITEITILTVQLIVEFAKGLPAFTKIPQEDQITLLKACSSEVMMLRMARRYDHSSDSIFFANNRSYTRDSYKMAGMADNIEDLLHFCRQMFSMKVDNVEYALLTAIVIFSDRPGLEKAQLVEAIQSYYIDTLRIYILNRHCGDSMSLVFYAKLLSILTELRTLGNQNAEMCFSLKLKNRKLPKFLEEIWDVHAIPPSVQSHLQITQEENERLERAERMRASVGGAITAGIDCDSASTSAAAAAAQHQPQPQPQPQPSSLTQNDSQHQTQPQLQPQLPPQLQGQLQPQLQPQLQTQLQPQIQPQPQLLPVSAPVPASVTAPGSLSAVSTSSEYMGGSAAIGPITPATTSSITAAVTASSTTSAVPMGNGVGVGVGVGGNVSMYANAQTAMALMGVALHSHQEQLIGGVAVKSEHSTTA

CCc1c(OC)cccc1C(=O)NN(C(=O)c1cc(C)cc(C)c1)C(C)(C)C [GS™-E, N-(2-ethyl-3-methoxybenzoyl)-N′-(3,5-dimethylbenzoyl)-N′-tert-butylhydrazine]
induction of luciferase reporter activity regulated by NcEcR-CDE [1]: does not induce reporter gene expression
induction of SEAP reporter activity (GAL4DmEcR-CDEF switch) [2]: only luciferase activity was induced
induction of luciferase reporter activity regulated by CfEcR-DEF [3]: luciferase activity regulated by CfEcR-DEF was induced
induction of luciferase reporter activity (LexACfEcR-CDEF switch) [4]: luciferase activity was induced

CC(C)CC[C@@H](O)[C@](C)(O)[C@H]1CC[C@@]2(O)C3=CC(=O)[C@@H]4C[C@@H](O)[C@@H](O)C[C@]4(C)[C@H]3CC[C@]12C [PonA, ponasterone A]
induction of luciferase reporter activity regulated by NcEcR-CDE [1]: luciferase reporter activity regulated by NcEcR-DE was induced
induction of SEAP reporter activity (GAL4DmEcR-CDEF switch) [2]: SEAP reporter activity was induced
induction of luciferase reporter activity regulated by CfEcR-DEF [3]: did not induce reporter gene expression
induction of luciferase reporter activity (LexACfEcR-CDEF switch) [4]: only SEAP reporter activity was induced
